Experimental data from the supplement of paper PMC10627819.

Key:
B. subtilis 168 [1] = test: fitness (endpoint OD595 vs no drug) (fraction); higher = more growth
Procedure, shortened: (§1)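 Bacterial growth was followed in 384-well plates seeded at OD595 0.01, with 30 µl per well, or 55 µl for S. pneumoniae, in TSB, LB Lennox or CY at 37 °C. OD595 was read every 30 min for 14 h, and each reading had the first reading subtracted as background. Fitness is the background-corrected optical density at entry into stationary phase divided by the robust mean of the no-drug control wells. This ratio is capped at 1.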

S. pneumoniae D39V [2] = test: as above
Procedure, shortened: as §1

B. subtilis 168 [3] = test: Bliss interaction score (quartile over a dose matrix) (fitness difference); higher = more antagonism (negative = synergy)
Procedure, shortened: (§2)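 Combination data were used to infer fitness under each single drug. Fitness is the OD595 at entry into stationary phase divided by the robust mean of the plate's no-drug wells, with a cap of 1. The Bliss score is the observed minus the expected product fitness, summarised by quartiles over technical, biological and donor/recipient replicates.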

S. aureus DSM 20231 = test: as above
Procedure, shortened: as §2

S. aureus Newman [4] = test: as above
Procedure, shortened: as §2

S. pneumoniae D39V [5] = test: as above
Procedure, shortened: as §2

S. aureus Newman [6] = test: fitness (endpoint OD595 vs no drug) (fraction); higher = more growth
Procedure, shortened: as §1
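Throughout, for Bliss interaction score (quartile over a dose matrix): first quartile when negative (synergy) and third quartile when positive (antagonism).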

CC1=C(C(=O)O)N2C(=O)[C@@H](NC(=O)[C@H](N)c3ccccc3)[C@H]2SC1 [Cephalexin] + CCC[C@@H]1C[C@@H](C(=O)N[C@@H]([C@H]2O[C@H](SC)[C@H](O)[C@@H](O)[C@H]2O)[C@@H](C)O)N(C)C1 [Lincomycin]
Conditions	fitness
B. subtilis 168 [1], first compound 0.125 µg/mL, partner 0.1 µg/mL	0.901
B. subtilis 168 [1], first compound 0.125 µg/mL, partner 0.2 µg/mL	0.876
B. subtilis 168 [1], first compound 0.125 µg/mL, partner 0.4 µg/mL	0.852
B. subtilis 168 [1], first compound 0.25 µg/mL, partner 0.1 µg/mL	0.941
B. subtilis 168 [1], first compound 0.25 µg/mL, partner 0.2 µg/mL	0.937
B. subtilis 168 [1], first compound 0.25 µg/mL, partner 0.4 µg/mL	0.913
B. subtilis 168 [1], first compound 0.5 µg/mL, partner 0.1 µg/mL	0.939
B. subtilis 168 [1], first compound 0.5 µg/mL, partner 0.2 µg/mL	0.901
B. subtilis 168 [1], first compound 0.5 µg/mL, partner 0.4 µg/mL	0.852
S. pneumoniae D39V [2], first compound 1 µg/mL, partner 0.215 µg/mL	0.832
S. pneumoniae D39V [2], first compound 1 µg/mL, partner 0.43 µg/mL	0.716
S. pneumoniae D39V [2], first compound 1 µg/mL, partner 0.86 µg/mL	0.403
S. pneumoniae D39V [2], first compound 2 µg/mL, partner 0.43 µg/mL	0.373
S. pneumoniae D39V [2], first compound 2 µg/mL, partner 0.86 µg/mL	0.176
S. pneumoniae D39V [2], first compound 4 µg/mL, partner 0.215 µg/mL	0.0258
S. pneumoniae D39V [2], first compound 4 µg/mL, partner 0.43 µg/mL	0.0283
S. pneumoniae D39V [2], first compound 4 µg/mL, partner 0.86 µg/mL	0.0358

fitness, one replicate
Conditions	partner 0.1 µg/mL	partner 0.2 µg/mL	partner 0.4 µg/mL	partner 0.8 µg/mL
B. subtilis 168 [1], first compound 1 µg/mL	≥ 1	≥ 1	≥ 1	–
S. pneumoniae D39V [2], first compound 0.125 µg/mL	–	0.722	0.663	0.206
S. pneumoniae D39V [2], first compound 0.25 µg/mL	–	0.759	0.643	0.304
S. pneumoniae D39V [2], first compound 0.5 µg/mL	–	0.786	0.702	0.288

Conditions	Bliss interaction score
B. subtilis 168 [3]	-0.0209
S. aureus DSM 20231	0.101
S. aureus Newman [4]	0.0797
S. pneumoniae D39V [5]	0.159

CC1=C(C(=O)O)N2C(=O)[C@@H](NC(=O)[C@H](N)c3ccccc3)[C@H]2SC1 [Cephalexin] + CN(C)C(=O)C(CCN1CCC(O)(c2ccc(Cl)cc2)CC1)(c1ccccc1)c1ccccc1 [Loperamide]
Conditions	fitness
B. subtilis 168 [1], first compound 0.125 µg/mL, partner 25 µg/mL	0.819
B. subtilis 168 [1], first compound 0.125 µg/mL, partner 50 µg/mL	0.0465
B. subtilis 168 [1], first compound 0.125 µg/mL, partner 100 µg/mL	0.0315
B. subtilis 168 [1], first compound 0.25 µg/mL, partner 25 µg/mL	0.803
B. subtilis 168 [1], first compound 0.25 µg/mL, partner 50 µg/mL	0.039
B. subtilis 168 [1], first compound 0.25 µg/mL, partner 100 µg/mL	0.025
B. subtilis 168 [1], first compound 0.5 µg/mL, partner 25 µg/mL	0.712
B. subtilis 168 [1], first compound 0.5 µg/mL, partner 50 µg/mL	0.0372
B. subtilis 168 [1], first compound 0.5 µg/mL, partner 100 µg/mL	0.0277
S. pneumoniae D39V [2], first compound 2 µg/mL, partner 34.28 µg/mL	0.165
S. pneumoniae D39V [2], first compound 4 µg/mL, partner 17.14 µg/mL	0.0474
S. pneumoniae D39V [2], first compound 4 µg/mL, partner 34.28 µg/mL	0.0181

fitness, S. pneumoniae D39V [2], one replicate
Conditions	first compound 0.125 µg/mL	first compound 0.25 µg/mL	first compound 0.5 µg/mL	first compound 1 µg/mL	first compound 2 µg/mL	first compound 4 µg/mL
partner 20 µg/mL	≥ 1	≥ 1	≥ 1	–	–	–
partner 40 µg/mL	≥ 1	0.995	0.99	–	–	–
partner 68.57 µg/mL	–	–	–	0.53	0.15	0.0031
partner 80 µg/mL	0.753	0.784	0.612	–	–	–

Conditions	Bliss interaction score
B. subtilis 168 [3]	-0.0893
S. aureus DSM 20231	0.116
S. aureus Newman [4]	0.0814
S. pneumoniae D39V [5]	-0.129

CC1=C(C(=O)O)N2C(=O)[C@@H](NC(=O)[C@H](N)c3ccccc3)[C@H]2SC1 [Cephalexin] + CN[C@H](CC(C)C)C(=O)N[C@H]1C(=O)N[C@@H](CC(N)=O)C(=O)N[C@H]2C(=O)N[C@H]3C(=O)N[C@H](C(=O)N[C@H](C(=O)O)c4cc(O)cc(O)c4-c4cc3ccc4O)[C@H](O)c3ccc(c(Cl)c3)Oc3cc2cc(c3O[C@@H]2O[C@H](CO)[C@@H](O)[C@H](O)[C@H]2O[C@H]2C[C@](C)(N)[C@H](O)[C@H](C)O2)Oc2ccc(cc2Cl)[C@H]1O [Vancomycin]
fitness
Conditions	first compound 0.25 µg/mL	first compound 0.5 µg/mL	first compound 1 µg/mL	first compound 2 µg/mL	first compound 4 µg/mL
S. aureus Newman [6], partner 0.1875 µg/mL	≥ 1	0.997	≥ 1	–	–
S. aureus Newman [6], partner 0.375 µg/mL	0.997	≥ 1	≥ 1	–	–
S. aureus Newman [6], partner 0.75 µg/mL	≥ 1	≥ 1	≥ 1	–	–
S. pneumoniae D39V [2], partner 0.03125 µg/mL	–	–	–	0.0634	0.0468
S. pneumoniae D39V [2], partner 0.0625 µg/mL	–	–	–	0.0312	0.0227
S. pneumoniae D39V [2], partner 0.125 µg/mL	–	–	0.282	0.0467	0.0467

fitness, S. pneumoniae D39V [2], one replicate
Conditions	first compound 0.125 µg/mL	first compound 0.25 µg/mL	first compound 0.5 µg/mL
partner 0.125 µg/mL	0.824	0.936	≥ 1
partner 0.25 µg/mL	0.165	0.383	0.428
partner 0.5 µg/mL	0.0735	0.0702	0.105

Conditions	Bliss interaction score
B. subtilis 168 [3]	-0.0548
S. aureus DSM 20231	0.0385
S. aureus Newman [4]	0.0402
S. pneumoniae D39V [5]	-0.207

CC1=C(C(=O)O)N2C(=O)[C@@H](NC(=O)[C@H](N)c3ccccc3)[C@H]2SC1 [Cephalexin] + Cn1nnc(-c2ccc(-c3ccc(N4C[C@H](CO)OC4=O)cc3F)cn2)n1 [Tedizolid]
fitness
Conditions	first compound 0.25 µg/mL	first compound 0.5 µg/mL	first compound 1 µg/mL	first compound 2 µg/mL	first compound 4 µg/mL
S. aureus Newman [6], partner 0.0625 µg/mL	0.965	0.999	0.967	–	–
S. aureus Newman [6], partner 0.125 µg/mL	0.914	0.901	0.924	–	–
S. pneumoniae D39V [2], partner 0.03125 µg/mL	–	–	0.919	0.391	0.0118
S. pneumoniae D39V [2], partner 0.0625 µg/mL	–	–	0.928	0.53	0.113
S. pneumoniae D39V [2], partner 0.125 µg/mL	–	–	0.778	0.529	0.115

fitness, S. pneumoniae D39V [2], one replicate
Conditions	first compound 0.125 µg/mL	first compound 0.25 µg/mL	first compound 0.5 µg/mL
partner 0.125 µg/mL	0.857	0.887	0.943
partner 0.25 µg/mL	0.762	0.775	0.793
partner 0.5 µg/mL	0.282	0.332	0.359

Conditions	Bliss interaction score
B. subtilis 168 [3]	-0.0471
S. aureus DSM 20231	-0.121
S. aureus Newman [4]	0.0857
S. pneumoniae D39V [5]	0.304
